Where “and” joins values, the source holds several entries; their conditions need not be identical. Equal values may be shown once. Read-outs that look alike come from different tables or passages of the source.
Key:
[1] = molecular target: T1, human GIP receptor (Homo sapiens, UniProt P48546); assay: biochemical; assay type: binding
T1 construct: expressed in transfected cells; host or cells: HEK293 (HEK-GIPR), membranes
T1 sequence (P48546 22-466): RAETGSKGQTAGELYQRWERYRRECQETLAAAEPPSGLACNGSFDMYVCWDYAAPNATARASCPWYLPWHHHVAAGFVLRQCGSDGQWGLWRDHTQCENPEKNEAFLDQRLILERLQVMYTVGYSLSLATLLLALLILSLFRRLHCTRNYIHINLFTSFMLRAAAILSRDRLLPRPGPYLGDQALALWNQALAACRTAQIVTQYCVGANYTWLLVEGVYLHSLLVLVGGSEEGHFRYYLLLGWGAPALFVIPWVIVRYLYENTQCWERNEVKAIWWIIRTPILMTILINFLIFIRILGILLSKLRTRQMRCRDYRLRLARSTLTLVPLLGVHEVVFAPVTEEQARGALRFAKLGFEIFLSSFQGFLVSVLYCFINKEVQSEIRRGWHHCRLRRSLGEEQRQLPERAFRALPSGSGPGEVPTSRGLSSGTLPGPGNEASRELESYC

[2] = assay type: in vivo, NIH/Swiss mice; conditions: 80 nmol/kg, AUC240
Protocol: (§1) In FIG. 3A, bars represent mean±sd, n=6-10. […] Gavage (1.5 g/kg) was given at t=0, Sample was taken at t=30 min. […] In FIG. 3B, points represent mean±sem, n=8-15.
Points represent mean±sem.

[3] = IVGTT duration of action assay (single SC injection before glucose); assay type: in vivo, rat; conditions: compared with 0601GIP3794 (794), dosed at −120 min
Protocol: To determine a duration of action using the IVGTT assay, the sample was injected SC as a single injection at one time point indicated (e.g., t=−240, −120, −60 or −30) prior to administration of glucose. IV glucose was given at t=0.

[4] = assay type: in vivo, NIH/Swiss mice; conditions: 30 nmol/kg
Protocol: as §1
Peptide was injected IP at t=−5 minutes into 4-hour fasted NIH/Swiss female mice. […] In FIG. 17 points represent mean+/−sem. […] Samples were taken at t=60, t=120 and t=180.

[5] = read-out: (% Inh 10 nm, GIP-LF Assay)
[6] = read-out: GIP RBA (% Inh 10 nM)

Compound | inhibition at 0.01 µM [1, 5] [%] | inhibition at 0.01 µM [1, 6] [%] | Basal Gluc. Low. 80 nmol/Kg [2] | Duration In The Rat IVGTT Assay [3] | OGTT/GL (%) [4]
CC[C@H](C)[C@H](NC(=O)[C@H](CO)NC(=O)[C@H](Cc1ccc(O)cc1)NC(=O)[C@H](CC(=O)O)NC(=O)[C@H](CO)NC(=O)[C@@H](NC(=O)[C@H](Cc1ccccc1)NC(=O)[C@@H](NC(=O)CNC(=O)[C@H](CCC(=O)O)NC(=O)[C@@H](C)NC(=O)[C@@H](N)Cc1ccc(O)cc1)[C@@H](C)O)[C@@H](C)CC)C(=O)N[C@@H](C)C(=O)N[C@@H](CCSC)C(=O)N[C@@H](CC(=O)O)C(=O)N[C@@H](CCCCN)C(=O)N[C@H](C(=O)N[C@@H](Cc1c[nH]cn1)C(=O)N[C@@H](CCC(N)=O)C(=O)N[C@@H](CCC(N)=O)C(=O)N[C@@H](CC(=O)O)C(=O)N[C@@H](Cc1ccccc1)C(=O)N[C@H](C(=O)N[C@@H](CC(N)=O)C(=O)N[C@@H](Cc1c[nH]c2ccccc12)C(=O)N[C@@H](CC(C)C)C(=O)N[C@@H](CC(C)C)C(=O)N[C@@H](C)C(=O)N[C@@H](CCC(N)=O)C(=O)N[C@@H](CCCCN)C(=O)N1CCC[C@H]1C(=O)N[C@@H](CO)C(=O)N1CCC[C@H]1C(=O)N[C@@H](CCCCN)C(=O)N[C@@H](CCCCN)C(=O)N[C@H](C(=O)N[C@@H](CCCNC(=N)N)C(=O)N[C@@H](Cc1ccc(O)cc1)C(=O)N[C@@H](CO)C(N)=O)[C@@H](C)CC)C(C)C)[C@@H](C)CC [Compound 0601GIP4823] | 94.1 | 94.1 | −23%, | <794@ −120 min | 
CC[C@H](C)[C@H](NC(=O)[C@H](C)NC(=O)[C@H](CCCCN)NC(=O)[C@@H]1CCCN1C(=O)[C@H](CCCCN)NC(=O)[C@H](CCC(N)=O)NC(=O)[C@H](C)NC(=O)[C@H](CC(C)C)NC(=O)[C@H](CC(C)C)NC(=O)[C@H](Cc1c[nH]c2ccccc12)NC(=O)[C@H](CC(N)=O)NC(=O)[C@@H](NC(=O)[C@H](Cc1ccccc1)NC(=O)[C@H](CC(=O)O)NC(=O)[C@H](CCC(N)=O)NC(=O)[C@H](CCC(N)=O)NC(=O)[C@H](Cc1c[nH]cn1)NC(=O)[C@@H](NC(=O)[C@H](CCCCN)NC(=O)[C@H](CC(=O)O)NC(=O)[C@H](CCSC)NC(=O)[C@H](C)NC(=O)[C@@H](NC(=O)[C@H](CO)NC(=O)[C@H](Cc1ccc(O)cc1)NC(=O)[C@H](CC(=O)O)NC(=O)[C@H](CO)NC(=O)[C@@H](NC(=O)[C@H](Cc1ccccc1)NC(=O)[C@@H](NC(=O)CNC(=O)[C@H](CCC(=O)O)NC(=O)[C@@H](C)NC(=O)[C@@H](N)Cc1ccc(O)cc1)[C@@H](C)O)[C@@H](C)CC)[C@@H](C)CC)[C@@H](C)CC)C(C)C)C(=O)N[C@@H](CCCNC(=N)N)C(=O)N[C@@H](Cc1ccc(O)cc1)C(=O)N[C@@H](CO)C(N)=O [Compound 0601GIP4816] | 87.3 | 87.3 | −9%, | <794@ −120 min | −19%,
CC[C@H](C)[C@H](NC(=O)[C@H](CO)NC(=O)[C@H](Cc1ccc(O)cc1)NC(=O)[C@H](CC(=O)O)NC(=O)[C@H](CO)NC(=O)[C@@H](NC(=O)[C@H](Cc1ccccc1)NC(=O)[C@@H](NC(=O)CNC(=O)[C@H](CCC(=O)O)NC(=O)[C@@H](C)NC(=O)[C@@H](N)Cc1ccc(O)cc1)[C@@H](C)O)[C@@H](C)CC)C(=O)N[C@@H](C)C(=O)N[C@@H](CCSC)C(=O)N[C@@H](CC(=O)O)C(=O)N[C@@H](CCCCN)C(=O)N[C@H](C(=O)N[C@@H](Cc1c[nH]cn1)C(=O)N[C@@H](CCC(N)=O)C(=O)N[C@@H](CCC(N)=O)C(=O)N[C@@H](CC(=O)O)C(=O)N[C@@H](Cc1ccccc1)C(=O)N[C@H](C(=O)N[C@@H](CC(N)=O)C(=O)N[C@@H](Cc1c[nH]c2ccccc12)C(=O)N[C@@H](CC(C)C)C(=O)N[C@@H](CC(C)C)C(=O)N[C@@H](C)C(=O)N[C@@H](CCC(N)=O)C(=O)N[C@@H](CCCCN)C(=O)N1CCC[C@H]1C(=O)N[C@@H](CCCCN)C(=O)N[C@@H](CO)C(=O)N[C@@H](C)C(=O)N[C@@H](CCCNC(=N)N)C(=O)N1CCC[C@H]1C(=O)N[C@@H](CO)C(N)=O)C(C)C)[C@@H](C)CC [Compound 0601GIP4821] | 93.5 | 93.5 | −5%, | <794@ −120 min | −28, %
CC[C@H](C)[C@H](NC(=O)[C@H](CO)NC(=O)[C@H](Cc1ccc(O)cc1)NC(=O)[C@H](CC(=O)O)NC(=O)[C@H](CO)NC(=O)[C@@H](NC(=O)[C@H](Cc1ccccc1)NC(=O)[C@@H](NC(=O)CNC(=O)[C@H](CCC(=O)O)NC(=O)[C@@H](C)NC(=O)[C@@H](N)Cc1ccc(O)cc1)[C@@H](C)O)[C@@H](C)CC)C(=O)N[C@@H](C)C(=O)N[C@@H](CCSC)C(=O)N[C@@H](CC(=O)O)C(=O)N[C@@H](CCCCN)C(=O)N[C@H](C(=O)N[C@@H](Cc1c[nH]cn1)C(=O)N[C@@H](CCC(N)=O)C(=O)N[C@@H](CCC(N)=O)C(=O)N[C@@H](CC(=O)O)C(=O)N[C@@H](Cc1ccccc1)C(=O)N[C@H](C(=O)N[C@@H](CC(N)=O)C(=O)N[C@@H](Cc1c[nH]c2ccccc12)C(=O)N[C@@H](CC(C)C)C(=O)N[C@@H](CC(C)C)C(=O)N[C@@H](C)C(=O)N[C@@H](CCC(N)=O)C(=O)N[C@@H](CCCCN)C(=O)N1CCC[C@H]1C(=O)N[C@@H](CCCCN)C(=O)N[C@@H](CCCCN)C(=O)N[C@@H](CC(C)C)C(=O)N[C@@H](CCCCN)C(=O)N1CCC[C@H]1C(=O)N[C@@H](CO)C(N)=O)C(C)C)[C@@H](C)CC [Compound 0601GIP4822] | 95.4 | 95.4 |  | <794@ −120 min | −23, %
CC[C@H](C)[C@H](NC(=O)[C@H](CO)NC(=O)[C@H](Cc1ccc(O)cc1)NC(=O)[C@H](CC(=O)O)NC(=O)[C@H](CO)NC(=O)[C@@H](NC(=O)[C@H](Cc1ccccc1)NC(=O)[C@@H](NC(=O)CNC(=O)[C@H](CCC(=O)O)NC(=O)[C@@H](C)NC(=O)[C@@H](N)Cc1ccc(O)cc1)[C@@H](C)O)[C@@H](C)CC)C(=O)N[C@@H](C)C(=O)N[C@@H](CC(C)C)C(=O)N[C@@H](CC(=O)O)C(=O)N[C@@H](CCCCN)C(=O)N[C@H](C(=O)N[C@@H](Cc1c[nH]cn1)C(=O)N[C@@H](CCC(N)=O)C(=O)N[C@@H](CCC(N)=O)C(=O)N[C@@H](CC(=O)O)C(=O)N[C@@H](Cc1ccccc1)C(=O)N[C@H](C(=O)N[C@@H](CC(N)=O)C(=O)N[C@@H](Cc1c[nH]c2ccccc12)C(=O)N[C@@H](CC(C)C)C(=O)N[C@@H](CC(C)C)C(=O)N[C@@H](C)C(=O)N[C@@H](CCC(N)=O)C(=O)N[C@@H](CCCCN)C(=O)N1CCC[C@H]1C(=O)N[C@@H](CCCCN)C(=O)N[C@@H](CCCCN)C(=O)N[C@H](C(=O)N[C@@H](CCCNC(=N)N)C(=O)N[C@@H](Cc1ccc(O)cc1)C(=O)N[C@@H](CO)C(N)=O)[C@@H](C)CC)C(C)C)[C@@H](C)CC [0601GIP4807] | 96.1 | 96.1 |  | <794 @ −120 min | −27, % and −27, 30%
